Laboratory results reported in paper PMC4180209 (Arteriosclerosis, thrombosis, and vascular biology, 2014).
Where two headings read alike, the source gives them in different places.

Experiments:
[1] = test system: human ADP-induced platelet aggregation; details: cited from earlier work
[2] = biological target: T1, platelet αIIbβ3 (Homo sapiens, UniProt P05106+P08514); details: cited from earlier work
[3] = biological target: T2, αIIbβ3 (Homo sapiens, UniProt P05106+P08514); details: cited from earlier work
[4] = Solubility in aqueous buffer; format: physicochemical
[5] = biological target: T1, platelet αIIbβ3; assay: Priming platelet αIIbβ3 to bind fibrinogen; format: cell-based
[6] = biological target: T3, murine αIIbβ3 (Mus musculus, UniProt O54890+Q9QUM0); assay: Reactivity with murine platelets / inhibition of murine αIIbβ3; format: cell-based
[7] = biological target: T3, murine αIIbβ3; details: 1 µM; cited from earlier work
[8] = biological target: T2, αIIbβ3; assay: Adhesion of HEK293 cells expressing αIIbβ3 to fibrinogen; format: cell-based; details: for inhibition of binding of cells expressing αIIbβ3 to fibrinogen: HEK293 cells, RUC-2 100 µM, RUC-4 300 µM; for Specificity for αIIbβ3 vs αVβ3: αIIbβ3 cells to fibrinogen vs αVβ3 cells to vitronectin
[9] = Plasma concentrations in hαIIb/mβ3 mice; format: in vivo; details: exception of an outlier value
[10] = test system: human ADP-induced platelet aggregation; assay: ADP-induced platelet aggregation in platelet-rich plasma; format: cell-based; details: read-out: IC50 ADP-induced platelet aggregation; 5 µM ADP; citrated platelet-rich plasma; n=8
[11] = test system: platelets of mice expressing hαIIb/mβ3; assay: ADP-induced platelet aggregation after dosing of hαIIb/mβ3 mice; format: in vivo
[12] = test system: hαIIb/mβ3 mice; assay: FeCl3 murine carotid artery thrombosis model; format: in vivo; details: for platelet counts: hαIIb/mβ3 mice
[13] = biological target: αVβ3 (Homo sapiens, UniProt P05106+P06756); assay: Adhesion of HEK293 cells expressing αVβ3 to vitronectin; format: cell-based; details: RUC-2 100 µM, RUC-4 300 µM
[14] = biological target: T2, αIIbβ3; assay: Binding of ligand-induced binding site mAb AP5 to washed platelets; format: cell-based; details: for induction of increased binding of mAb AP5 (LIBS epitope in β3 PSI domain): eptifibatide 10 µM, RUC-2 100 µM, RUC-4 100 µM
[15] = Clinical evaluation and platelet counts in M. fascicularis
[16] = test system: human platelets; format: in vivo, mice; details: RUC-4 IV 1.5 mg/kg; laser injury, cremasteric arterioles; intravital microscopy
[17] = cited from earlier work
[18] = test system: hαIIb/mβ3 platelets; details: read-out: IC50 for hαIIb/mβ3 platelets; data not shown, n=3
[19] = test system: ADP (20 µM)-induced platelet aggregation; assay: ADP-induced platelet aggregation after IM administration to M. fascicularis; format: in vivo
[20] = RUC-2 0.39 mg/kg IP, 20 µM ADP, hαIIb/mβ3 mice
[21] = IM 1.9 and 3.85 mg/kg, non-human primates
[22] = RUC-4 1.2 mg/kg IM, 20 µM ADP, hαIIb/mβ3 mice

T3 sequence (Q9QUM0 32-1033): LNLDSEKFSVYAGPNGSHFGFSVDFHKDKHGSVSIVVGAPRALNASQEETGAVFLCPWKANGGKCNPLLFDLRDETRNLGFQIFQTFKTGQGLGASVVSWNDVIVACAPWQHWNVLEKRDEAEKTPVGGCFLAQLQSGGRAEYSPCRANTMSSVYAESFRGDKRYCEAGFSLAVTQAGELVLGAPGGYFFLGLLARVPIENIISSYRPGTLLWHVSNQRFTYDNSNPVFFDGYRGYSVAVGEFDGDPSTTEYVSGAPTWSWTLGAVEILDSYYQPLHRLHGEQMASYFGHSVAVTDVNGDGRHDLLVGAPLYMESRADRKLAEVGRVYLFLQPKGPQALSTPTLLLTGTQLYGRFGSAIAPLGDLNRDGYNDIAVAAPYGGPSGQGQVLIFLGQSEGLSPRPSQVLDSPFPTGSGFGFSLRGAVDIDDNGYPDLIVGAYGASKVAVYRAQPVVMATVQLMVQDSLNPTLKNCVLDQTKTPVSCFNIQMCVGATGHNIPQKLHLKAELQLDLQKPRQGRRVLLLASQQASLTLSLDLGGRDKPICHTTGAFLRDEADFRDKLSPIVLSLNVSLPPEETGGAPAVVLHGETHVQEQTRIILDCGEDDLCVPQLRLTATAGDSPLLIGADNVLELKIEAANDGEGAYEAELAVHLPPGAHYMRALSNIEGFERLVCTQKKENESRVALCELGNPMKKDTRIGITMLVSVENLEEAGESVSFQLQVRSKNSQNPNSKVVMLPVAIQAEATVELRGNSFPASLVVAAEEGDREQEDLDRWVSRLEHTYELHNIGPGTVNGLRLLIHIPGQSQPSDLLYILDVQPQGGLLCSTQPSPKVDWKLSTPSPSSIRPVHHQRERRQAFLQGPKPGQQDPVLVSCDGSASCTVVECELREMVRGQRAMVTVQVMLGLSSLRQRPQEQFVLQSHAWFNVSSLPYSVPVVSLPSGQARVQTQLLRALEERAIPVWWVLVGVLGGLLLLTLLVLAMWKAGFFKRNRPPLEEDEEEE
T3 sequence (O54890 26-787): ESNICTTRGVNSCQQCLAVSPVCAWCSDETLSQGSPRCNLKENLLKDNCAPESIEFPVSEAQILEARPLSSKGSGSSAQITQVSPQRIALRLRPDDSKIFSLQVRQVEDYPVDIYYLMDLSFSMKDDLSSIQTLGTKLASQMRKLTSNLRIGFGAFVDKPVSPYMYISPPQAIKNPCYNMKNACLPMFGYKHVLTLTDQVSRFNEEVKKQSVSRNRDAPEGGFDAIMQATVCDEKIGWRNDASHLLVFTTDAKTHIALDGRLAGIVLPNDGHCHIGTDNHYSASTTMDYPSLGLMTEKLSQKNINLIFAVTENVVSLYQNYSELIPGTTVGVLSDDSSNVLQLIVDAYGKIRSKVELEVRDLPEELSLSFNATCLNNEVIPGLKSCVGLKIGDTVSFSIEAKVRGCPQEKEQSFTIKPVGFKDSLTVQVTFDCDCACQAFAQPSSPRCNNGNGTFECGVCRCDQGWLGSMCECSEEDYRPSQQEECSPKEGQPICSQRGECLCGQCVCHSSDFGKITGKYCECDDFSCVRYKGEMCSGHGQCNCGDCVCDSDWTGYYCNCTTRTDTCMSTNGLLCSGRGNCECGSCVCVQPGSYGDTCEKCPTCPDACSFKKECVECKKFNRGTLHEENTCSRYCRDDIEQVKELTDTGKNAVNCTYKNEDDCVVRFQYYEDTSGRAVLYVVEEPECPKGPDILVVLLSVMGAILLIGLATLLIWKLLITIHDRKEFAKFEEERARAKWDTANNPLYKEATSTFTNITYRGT
T2 sequence (P08514 32-887 limits assumed): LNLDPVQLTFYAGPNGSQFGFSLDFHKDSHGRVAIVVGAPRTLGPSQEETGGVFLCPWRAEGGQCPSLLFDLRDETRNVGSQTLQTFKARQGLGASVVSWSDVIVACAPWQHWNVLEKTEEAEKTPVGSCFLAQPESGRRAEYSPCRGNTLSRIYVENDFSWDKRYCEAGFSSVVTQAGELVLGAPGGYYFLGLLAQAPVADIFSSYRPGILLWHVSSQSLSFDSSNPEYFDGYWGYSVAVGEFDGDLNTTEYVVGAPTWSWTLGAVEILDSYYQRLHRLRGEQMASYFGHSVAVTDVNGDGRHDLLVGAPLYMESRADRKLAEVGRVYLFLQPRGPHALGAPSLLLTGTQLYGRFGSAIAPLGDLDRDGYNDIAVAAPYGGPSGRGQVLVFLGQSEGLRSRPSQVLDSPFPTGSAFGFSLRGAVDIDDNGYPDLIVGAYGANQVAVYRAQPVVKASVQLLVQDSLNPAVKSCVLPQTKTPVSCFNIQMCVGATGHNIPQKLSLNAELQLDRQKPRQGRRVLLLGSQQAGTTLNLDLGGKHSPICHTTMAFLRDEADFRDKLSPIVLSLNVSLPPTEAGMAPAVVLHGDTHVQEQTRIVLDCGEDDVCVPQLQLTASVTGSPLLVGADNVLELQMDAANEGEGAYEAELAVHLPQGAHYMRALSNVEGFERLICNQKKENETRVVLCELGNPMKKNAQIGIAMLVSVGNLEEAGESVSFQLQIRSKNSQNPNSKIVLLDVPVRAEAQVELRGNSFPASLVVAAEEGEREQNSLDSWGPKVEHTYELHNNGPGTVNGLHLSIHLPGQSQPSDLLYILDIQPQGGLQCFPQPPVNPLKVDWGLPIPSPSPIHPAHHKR
T2 sequence (P08514 891-1039 partner limits assumed): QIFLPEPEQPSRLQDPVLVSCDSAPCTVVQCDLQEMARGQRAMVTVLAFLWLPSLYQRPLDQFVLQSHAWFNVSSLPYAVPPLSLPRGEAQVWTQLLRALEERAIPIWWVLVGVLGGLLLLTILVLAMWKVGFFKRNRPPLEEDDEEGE
T2 sequence (P05106 27-788): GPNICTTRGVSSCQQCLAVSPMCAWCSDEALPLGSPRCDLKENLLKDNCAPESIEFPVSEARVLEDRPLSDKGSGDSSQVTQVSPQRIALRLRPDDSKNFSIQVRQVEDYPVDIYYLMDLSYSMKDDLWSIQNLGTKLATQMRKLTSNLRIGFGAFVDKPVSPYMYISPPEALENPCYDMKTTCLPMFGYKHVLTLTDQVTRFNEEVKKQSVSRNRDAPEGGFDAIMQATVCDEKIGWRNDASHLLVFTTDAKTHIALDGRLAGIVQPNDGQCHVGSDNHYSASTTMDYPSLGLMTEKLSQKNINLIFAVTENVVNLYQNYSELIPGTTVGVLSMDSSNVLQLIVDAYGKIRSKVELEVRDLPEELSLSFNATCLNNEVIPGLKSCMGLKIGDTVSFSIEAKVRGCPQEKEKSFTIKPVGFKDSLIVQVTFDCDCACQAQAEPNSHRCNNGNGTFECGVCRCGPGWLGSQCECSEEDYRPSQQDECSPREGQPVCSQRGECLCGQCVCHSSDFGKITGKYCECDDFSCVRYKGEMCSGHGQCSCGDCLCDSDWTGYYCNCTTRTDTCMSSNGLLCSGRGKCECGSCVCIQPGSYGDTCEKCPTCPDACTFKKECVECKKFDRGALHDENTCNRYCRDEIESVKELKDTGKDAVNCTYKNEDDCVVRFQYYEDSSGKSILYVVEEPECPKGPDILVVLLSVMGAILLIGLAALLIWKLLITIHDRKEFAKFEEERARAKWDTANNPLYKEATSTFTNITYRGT
T1 sequence (P08514 32-887 limits assumed): as the sequence (P08514 32-887 limits assumed) above
T1 sequence (P08514 891-1039 partner limits assumed): as the sequence (P08514 891-1039 partner limits assumed) above
T1 sequence (P05106 27-788): as the sequence (P05106 27-788) above
Chain of αVβ3 (P06756 31-889 limits assumed): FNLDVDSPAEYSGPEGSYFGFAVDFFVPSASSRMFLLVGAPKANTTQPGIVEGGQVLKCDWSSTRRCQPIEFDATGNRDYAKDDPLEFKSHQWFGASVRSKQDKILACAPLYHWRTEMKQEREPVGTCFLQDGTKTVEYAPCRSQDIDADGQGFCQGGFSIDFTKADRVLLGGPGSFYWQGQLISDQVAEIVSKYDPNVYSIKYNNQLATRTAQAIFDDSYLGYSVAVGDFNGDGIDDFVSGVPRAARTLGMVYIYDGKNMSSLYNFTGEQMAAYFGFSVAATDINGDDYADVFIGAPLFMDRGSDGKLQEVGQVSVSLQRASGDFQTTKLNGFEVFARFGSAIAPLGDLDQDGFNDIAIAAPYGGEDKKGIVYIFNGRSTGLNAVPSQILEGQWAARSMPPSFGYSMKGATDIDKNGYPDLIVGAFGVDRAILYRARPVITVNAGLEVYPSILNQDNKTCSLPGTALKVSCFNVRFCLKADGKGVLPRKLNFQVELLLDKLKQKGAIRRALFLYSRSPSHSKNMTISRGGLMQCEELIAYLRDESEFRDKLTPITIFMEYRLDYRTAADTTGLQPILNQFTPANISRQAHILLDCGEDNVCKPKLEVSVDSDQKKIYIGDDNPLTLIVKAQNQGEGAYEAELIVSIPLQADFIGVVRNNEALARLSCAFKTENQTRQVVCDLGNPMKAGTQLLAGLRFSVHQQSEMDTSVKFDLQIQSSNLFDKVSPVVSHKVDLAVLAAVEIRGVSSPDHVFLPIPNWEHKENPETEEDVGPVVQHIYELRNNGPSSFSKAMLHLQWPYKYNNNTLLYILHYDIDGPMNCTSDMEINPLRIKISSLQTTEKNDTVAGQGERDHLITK
Chain of αVβ3 (P06756 891-1048 partner limits assumed): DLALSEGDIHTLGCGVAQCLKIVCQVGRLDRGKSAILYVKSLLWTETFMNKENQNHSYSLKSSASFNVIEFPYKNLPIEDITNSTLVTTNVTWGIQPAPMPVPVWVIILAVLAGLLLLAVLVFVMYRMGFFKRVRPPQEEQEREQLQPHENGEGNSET
Chain of αVβ3 (P05106 27-788): as the sequence (P05106 27-788) above

**Q.** With eptifibatide [reference compound] as the compound, how does the “fold higher affinity for αIIbβ3 than RUC-4 as judged by IC50 for platelet aggregation” value [1] read?
**A.** more than 4 fold

**Q.** What about the “priming of the receptor to bind the ligand fibrinogen” value (shortened to “priming of the receptor”) [2] of the same compound?
**A.** unlike eptifibatide and tirofiban, neither RUC-1 nor RUC-2 primed the receptor

**Q.** For NCC(=O)Nc1cccc(-c2nn3c(=O)cc(N4CCNCC4)nc3s2)c1 [RUC-2], which “conformational changes in β3 detectable by a conformation-specific monoclonal antibody or by electron microscopy” value [3] is on record?
**A.** nor did they induce conformational changes in β3

**Q.** What about the IC50 [1] of the same compound?
**A.** ~90 nM

**Q.** What about the “fold more potent than RUC-1” value [1] of the same compound?
**A.** ~ 100 fold

**Q.** What about the “Solubility in aqueous buffer at pH 7.4” value [4] of the same compound?
**A.** 0.068–0.092 mg/ml

**Q.** What about the “Ability to prime αIIbβ3 to bind fibrinogen” value [5] of the same compound?
**A.** No

**Q.** What about the “Reactivity with murine platelets” value [6] of the same compound?
**A.** No

**Q.** And the “inhibition of murine αIIbβ3” value [7]?
**A.** does not inhibit

**Q.** And the “inhibition of binding of cells expressing αIIbβ3 to fibrinogen” value [8]?
**A.** inhibiting the binding of cells expressing αIIbβ3 to fibrinogen

**Q.** What about the “Specificity for αIIbβ3 vs αVβ3” value [8] of the same compound?
**A.** Yes

**Q.** And the “time to maximum plasma concentration” value ([9]; RUC-2 IP)?
**A.** 15 min

**Q.** What about the IC50 [10] of the same compound?
**A.** 95 ± 20 nM

**Q.** And the “time at which return of the aggregation response begins” value [11, 20]?
**A.** 45 min

**Q.** And the “time to complete inhibition of platelet aggregation” value [11, 20]?
**A.** ≤ 15 min

**Q.** What about the “time to complete inhibition of platelet aggregation” value ([11]; RUC-2 3.85 mg/kg IP, 20 µM ADP, hαIIb/mβ3 mice) of the same compound?
**A.** ≤ 15 min

**Q.** What about the “platelet aggregation at the 45 minute time point” value ([11]; RUC-2 3.85 mg/kg IP) of the same compound?
**A.** complete inhibition of platelet aggregation in all animals

**Q.** And the “mice protected from vaso-occlusion” value ([12]; RUC-2 3.85 mg/kg IP, 20% FeCl3 for 3 minutes, 20 minutes after dosing)?
**A.** 8/8

**Q.** And the platelet counts ([12]; RUC-2 3.85 mg/kg IP)?
**A.** 677±132 × 10^3 platelets per µl

**Q.** And the “inhibition of binding of cells expressing αVβ3 to vitronectin” value [13]?
**A.** inability to inhibit

**Q.** And the “priming of the receptor” value [2]?
**A.** neither RUC-1 nor RUC-2 primed the receptor

**Q.** What about the “Ability to Induce conformational changes in αIIbβ3 identifiable by LIBS mAb” value [14] of the same compound?
**A.** No

**Q.** What about the “induction of increased binding of mAb AP5 (LIBS epitope in β3 PSI domain)” value [14] of the same compound?
**A.** did not induce increased binding

**Q.** For CCCCS(=O)(=O)N[C@@H](Cc1ccc(OCCCCC2CCNCC2)cc1)C(=O)O [tirofiban, reference compound], which “priming of the receptor” value [2] is on record?
**A.** unlike eptifibatide and tirofiban, neither RUC-1 nor RUC-2 primed the receptor

**Q.** For CCc1nn2c(=O)cc(N3CCNCC3)nc2s1 [RUC-1], which “conformational changes in β3 detectable by a conformation-specific monoclonal antibody or by electron microscopy” value [3] is on record?
**A.** nor did they induce conformational changes in β3

**Q.** And the IC50 [1]?
**A.** 13000 nM

**Q.** What about the “priming of the receptor” value [2] of the same compound?
**A.** neither RUC-1 nor RUC-2 primed the receptor

**Q.** Which bleeding observation ([15]; 3.85 mg/kg IM) does the source give for NCC(=O)Nc1cncc(-c2nn3c(=O)cc(N4CCNCC4)nc3s2)c1 [RUC-4] here?
**A.** Transient gum bleeding

**Q.** What about the “clinical evaluation (tolerability)” value ([15]; IM 3.86, 1.93 and 1.0 mg/kg) of the same compound?
**A.** well tolerated

**Q.** What about the “platelet counts throughout the 24 hour period” value ([15]; IM 3.86, 1.93 and 1.0 mg/kg, 24 hour) of the same compound?
**A.** remained stable

**Q.** What about the “fold more soluble than RUC-2 in aqueous buffer at neutral pH” value ([4]; neutral pH) of the same compound?
**A.** more than 500 fold

**Q.** And the “Solubility in aqueous buffer at pH 7.4” value [4]?
**A.** 60–80 mg/ml

**Q.** What about the “decrease in thrombus formation” value [16] of the same compound?
**A.** > 80%

**Q.** What about the “Ability to prime αIIbβ3 to bind fibrinogen” value [5] of the same compound?
**A.** No

**Q.** What about the “fold more soluble than RUC-2” value [17] of the same compound?
**A.** more than 500 fold

**Q.** And the “Reactivity with murine platelets” value [6]?
**A.** No

**Q.** And the “inhibition of murine αIIbβ3” value ([6]; data not shown)?
**A.** shares this property

**Q.** What about the IC50 [18] of the same compound?
**A.** ~10 nM

**Q.** And the “inhibition of binding of cells expressing αIIbβ3 to fibrinogen” value [8]?
**A.** inhibiting the binding of cells expressing αIIbβ3 to fibrinogen

**Q.** What about the “Specificity for αIIbβ3 vs αVβ3” value [8] of the same compound?
**A.** Yes

**Q.** And the “time at which return toward normal aggregation is evident” value ([19]; 1.0 mg/kg IM, 20 µM ADP)?
**A.** 2 h

**Q.** And the “inhibition of aggregation at 15 minutes” value ([19]; 1.0 mg/kg IM, 15 minutes)?
**A.** partial

**Q.** What about the “time at which aggregation response began to return to normal” value ([19]; 1.93 mg/kg IM, 20 µM ADP) of the same compound?
**A.** ≤ 4.5 h

**Q.** And the “time to complete inhibition of aggregation” value ([19]; 1.93 mg/kg IM, 20 µM ADP)?
**A.** ≤ 15 min

**Q.** And the “time to complete inhibition of aggregation” value ([19]; 3.86 mg/kg IM, 20 µM ADP)?
**A.** ≤ 15 min

**Q.** What about the “dose-dependent return of platelet aggregation after” value [19, 21] of the same compound?
**A.** 4.5 to 24 h

**Q.** And the “time to complete inhibition of platelet aggregation” value [19, 21]?
**A.** ≤ 15 min

**Q.** And the “time to maximum plasma concentration” value ([9]; RUC-4 IM)?
**A.** 5 min

**Q.** What about the IC50 [10] of the same compound?
**A.** 57 ± 10 nM

**Q.** And the “time of complete inhibition of platelet aggregation” value [11, 22]?
**A.** 5 min

**Q.** What about the “time of partial return of aggregation” value [11, 22] of the same compound?
**A.** 4 h

**Q.** What about the “platelet aggregation at the 45 minute time point” value ([11]; RUC-4 1.2 mg/kg IM) of the same compound?
**A.** complete inhibition of platelet aggregation in all animals

**Q.** And the “mice developing occlusion during the experiment” value ([12]; RUC-4 1.2 mg/kg IM, 20% FeCl3 for 3 minutes, 20 minutes after dosing)?
**A.** 2/11

**Q.** What about the platelet counts ([12]; RUC-4 1.2 mg/kg IM) of the same compound?
**A.** 674±176 × 10^3 platelets per µl

**Q.** What about the “inhibition of binding of cells expressing αVβ3 to vitronectin” value [13] of the same compound?
**A.** inability to inhibit

**Q.** And the “Ability to Induce conformational changes in αIIbβ3 identifiable by LIBS mAb” value [14]?
**A.** No

**Q.** And the “induction of increased binding of mAb AP5 (LIBS epitope in β3 PSI domain)” value [14]?
**A.** did not induce increased binding
